PubChem BioAssay AID1963443 (Molecular Pharmacology Branch, DTP, NCI, 2024)

Tested on: MDA-MB-231 complex spheroids, growth inhibition
Experiment: Anticancer human tumor MDA-MB-231 cell line growth inhibition [Asc];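 further: spheroids exposed to compounds for 7 days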
Settings: for IC50: curve of first compound; for viability, T/C: stronger effect = lower value
Outline: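 Stromal components (HUVEC and hMSC) are co-assembled with the cancer cells into multicellular spheroids. Drugs are then added singly or paired, at concentrations falling by half-log increments from a clinically achievable maximum, capped at 10 microM without known Cmax.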

[1] = second compound 0.1 µM, first compound 0.00316 µM
[2] = second compound 0.1 µM, first compound 0.01 µM
[3] = second compound 0.1 µM, first compound 0.0316 µM
[4] = second compound 0.1 µM, first compound 0.1 µM
[5] = second compound 0.1 µM, first compound 0.316 µM
[6] = second compound 0.1 µM, first compound 1 µM
[7] = second compound 0.316 µM, first compound 0.00316 µM
[8] = second compound 0.316 µM, first compound 0.01 µM
[9] = second compound 0.316 µM, first compound 0.0316 µM
[10] = second compound 0.316 µM, first compound 0.1 µM
[11] = second compound 0.316 µM, first compound 0.316 µM
[12] = second compound 0.316 µM, first compound 1 µM
[13] = second compound 1 µM, first compound 0.00316 µM
[14] = second compound 1 µM, first compound 0.01 µM
[15] = second compound 1 µM, first compound 0.0316 µM
[16] = second compound 1 µM, first compound 0.1 µM
[17] = second compound 1 µM, first compound 0.316 µM
[18] = second compound 1 µM, first compound 1 µM
[19] = second compound 3.16 µM, first compound 0.00316 µM
[20] = second compound 3.16 µM, first compound 0.01 µM
[21] = second compound 3.16 µM, first compound 0.0316 µM
[22] = second compound 3.16 µM, first compound 0.1 µM
[23] = second compound 3.16 µM, first compound 0.316 µM
[24] = second compound 3.16 µM, first compound 1 µM
[25] = second compound 10 µM, first compound 0.00316 µM
[26] = second compound 10 µM, first compound 0.01 µM
[27] = second compound 10 µM, first compound 0.0316 µM
[28] = second compound 10 µM, first compound 0.1 µM
[29] = second compound 10 µM, first compound 0.316 µM
[30] = second compound 10 µM, first compound 1 µM

Structure (SMILES) | IC50 (second compound 0.1 µM) [nM] | IC50 (second compound 0.316 µM) [nM] | IC50 (second compound 1 µM) [nM] | IC50 (second compound 3.16 µM) [nM] | IC50 (second compound 10 µM) [nM] | viability, T/C [1] [%] | viability, T/C [2] [%] | viability, T/C [3] [%] | viability, T/C [4] [%] | viability, T/C [5] [%] | viability, T/C [6] [%] | viability, T/C [7] [%] | viability, T/C [9] [%] | viability, T/C [10] [%] | viability, T/C [15] [%] | viability, T/C [16] [%] | viability, T/C [21] [%] | viability, T/C [22] [%] | viability, T/C [27] [%] | viability, T/C [28] [%] | further results
COc1c(OCCCN2CCOCC2)ccc2c3n(c(=NC(=O)c4cnc(N)nc4)nc12)CCN3 + Cc1c(S(C)(=O)=O)c(-c2cc(F)cc(N3CCN(c4ccc(NS(=O)(=O)c5ccc(NC(CCN6CCC(C(=O)OCCCP(=O)(O)O)CC6)CSc6ccccc6)c(S(=O)(=O)C(F)(F)F)c5)cc4)CC3)c2)c(-c2ccc(Cl)cc2)n1C(C)C | 95.4 | 72.9 | 64.2 | 44.5 | 49 | 85.8 | 85.2 | 67.7 | 49.3 | 31.3 | 20.1 | 94.6 | 63 | 47 | 66 | 40.8 | 54.6 | 32.8 | 59.8 | 32.5 | viability, T/C [8]: 81.1%; viability, T/C [11]: 24.3%; viability, T/C [12]: 12.1%; viability, T/C [13]: 94.8%; viability, T/C [14]: 85.1%; viability, T/C [17]: 17.6%; viability, T/C [18]: 8.74%; viability, T/C [19]: 88.1%; viability, T/C [20]: 84.2%; viability, T/C [23]: 12.1%; viability, T/C [24]: 5.37%; viability, T/C [25]: 90.3%; viability, T/C [26]: 85.1%; viability, T/C [29]: 10.2%; viability, T/C [30]: 3.64%
C#Cc1c(F)ccc2cc(O)cc(-c3ncc4c(N5CC6CCC(C5)N6)nc(OCC56CCCN5CC(F)C6)nc4c3F)c12 (stereo not given) + Cc1c(S(C)(=O)=O)c(-c2cc(F)cc(N3CCN(c4ccc(NS(=O)(=O)c5ccc(NC(CCN6CCC(C(=O)OCCCP(=O)(O)O)CC6)CSc6ccccc6)c(S(=O)(=O)C(F)(F)F)c5)cc4)CC3)c2)c(-c2ccc(Cl)cc2)n1C(C)C | > 10000 | 7530 | 4700 | 3260 | 3280 |  |  | 96.6 | 103 | 95.6 | 73.6 |  | 105 | 104 | 102 | 96.8 | 93.3 | 94.6 | 97.2 | 97.2 | viability, T/C (second compound 0.1 µM, first compound 3.16 µM): 68.7%; viability, T/C (second compound 0.1 µM, first compound 10 µM): 50.7%; viability, T/C [11]: 98.3%; viability, T/C [12]: 76.6%; viability, T/C (second compound 0.316 µM, first compound 3.16 µM): 63.4%; viability, T/C (second compound 0.316 µM, first compound 10 µM): 45.5%; viability, T/C [17]: 101%; viability, T/C [18]: 74.2%; viability, T/C (second compound 1 µM, first compound 3.16 µM): 59.6%; viability, T/C (second compound 1 µM, first compound 10 µM): 36.1%; viability, T/C [23]: 97.7%; viability, T/C [24]: 72.2%; viability, T/C (second compound 3.16 µM, first compound 3.16 µM): 52.9%; viability, T/C (second compound 3.16 µM, first compound 10 µM): 23.3%; viability, T/C [29]: 99%; viability, T/C [30]: 89.5%; viability, T/C (second compound 10 µM, first compound 3.16 µM): 51.3%; viability, T/C (second compound 10 µM, first compound 10 µM): 12.7%
Cn1ncnc1[C@H]1c2n[nH]c(=O)c3cc(F)cc(c23)N[C@@H]1c1ccc(F)cc1 + Cc1c(S(C)(=O)=O)c(-c2cc(F)cc(N3CCN(c4ccc(NS(=O)(=O)c5ccc(NC(CCN6CCC(C(=O)OCCCP(=O)(O)O)CC6)CSc6ccccc6)c(S(=O)(=O)C(F)(F)F)c5)cc4)CC3)c2)c(-c2ccc(Cl)cc2)n1C(C)C | > 100 | > 100 | > 100 | > 100 | > 100 | 107 | 92.3 | 87.8 | 87.2 |  |  | 95.9 | 80.7 | 81 | 82.3 | 75.7 | 68.7 | 63.1 | 74.4 | 65 | viability, T/C (second compound 0.1 µM, first compound 0.000316 µM): 104%; viability, T/C (second compound 0.1 µM, first compound 0.001 µM): 95.4%; viability, T/C (second compound 0.316 µM, first compound 0.000316 µM): 103%; viability, T/C (second compound 0.316 µM, first compound 0.001 µM): 105%; viability, T/C [8]: 90.6%; viability, T/C (second compound 1 µM, first compound 0.000316 µM): 101%; viability, T/C (second compound 1 µM, first compound 0.001 µM): 107%; viability, T/C [13]: 105%; viability, T/C [14]: 89.5%; viability, T/C (second compound 3.16 µM, first compound 0.000316 µM): 101%; viability, T/C (second compound 3.16 µM, first compound 0.001 µM): 95.5%; viability, T/C [19]: 82.2%; viability, T/C [20]: 83.7%; viability, T/C (second compound 10 µM, first compound 0.000316 µM): 115%; viability, T/C (second compound 10 µM, first compound 0.001 µM): 108%; viability, T/C [25]: 98.5%; viability, T/C [26]: 91.3%
CNC(C)C(=O)NC1CN(S(=O)(=O)c2cccc(S(=O)(=O)N3CCC4CCC(C(=O)NC(c5ccccc5)c5ccccc5)N4C(=O)C(NC(=O)C(C)NC)C3)c2)CCC2CCC(C(=O)NC(c3ccccc3)c3ccccc3)N2C1=O (stereo not given) + Cc1c(S(C)(=O)=O)c(-c2cc(F)cc(N3CCN(c4ccc(NS(=O)(=O)c5ccc(NC(CCN6CCC(C(=O)OCCCP(=O)(O)O)CC6)CSc6ccccc6)c(S(=O)(=O)C(F)(F)F)c5)cc4)CC3)c2)c(-c2ccc(Cl)cc2)n1C(C)C | < 3.16 | < 3.16 | < 3.16 | < 3.16 | < 3.16 | 2.88 | 0.95 | 0.9 | 0.67 | 0.5 | 0.72 | 2.6 | 0.75 | 0.41 | 0.54 | 0.29 | 0.35 | 0.27 | 0.42 | 0.48 | viability, T/C [8]: 0.97%; viability, T/C [11]: 0.53%; viability, T/C [12]: 0.56%; viability, T/C [13]: 2.07%; viability, T/C [14]: 0.62%; viability, T/C [17]: 0.35%; viability, T/C [18]: 0.9%; viability, T/C [19]: 1.77%; viability, T/C [20]: 0.46%; viability, T/C [23]: 0.26%; viability, T/C [24]: 0.39%; viability, T/C [25]: 1.22%; viability, T/C [26]: 0.49%; viability, T/C [29]: 0.43%; viability, T/C [30]: 0.61%
